Test results as given in patent publication US12122778B2, “Activating pyruvate kinase R” (Novo Nordisk Health Care AG, priority 2018, dated 2024).

Key:
PKR(R510Q) = PKR(R510Q) (Homo sapiens, UniProt P30613, R510Q); assay: Luminescence Biochemical Assay (Kinase Glo Plus), PKR R510Q mutant; conditions: without FBP; for activation at 1.54 µM: 1.54 μM compound, read-out: AC50 LUM KGP woFBP % Fold@1.54 μM mean; for AC50: read-out: AC50 LUM KGP woFBP AC50 μM gmean; for Emax: read-out: AC50 LUM KGP woFBP MAX % FOLD mean
PKR(G332S) = PKR(G332S) (Homo sapiens, UniProt P30613, G332S); assay: Luminescence Biochemical Assay (Kinase Glo Plus), PKR G332S mutant; conditions: with FBP; for activation at 1.54 µM: 1.54 μM compound, read-out: AC50 LUM KGP FBP % Fold@1.54 μM mean; for AC50: read-out: AC50 LUM KGP FBP AC50 μM gmean (column A); for Emax: read-out: AC50 LUM KGP FBP MAX % FOLD mean
PKR(wt) = PKR(wt) (Homo sapiens, UniProt P30613); assay: Luminescence Biochemical Assay (Kinase Glo Plus), wild type PKR; conditions: without FBP; for activation at 1.54 µM: 1.54 μM compound, read-out: AC50 LUM KGP woFBP % Fold@1.54 μM mean; for AC50: read-out: AC50 LUM KGP woFBP AC50 μM gmean; for Emax: read-out: AC50 LUM KGP woFBP MAX % FOLD mean
PKR(wt), sequence (P30613 whole entry): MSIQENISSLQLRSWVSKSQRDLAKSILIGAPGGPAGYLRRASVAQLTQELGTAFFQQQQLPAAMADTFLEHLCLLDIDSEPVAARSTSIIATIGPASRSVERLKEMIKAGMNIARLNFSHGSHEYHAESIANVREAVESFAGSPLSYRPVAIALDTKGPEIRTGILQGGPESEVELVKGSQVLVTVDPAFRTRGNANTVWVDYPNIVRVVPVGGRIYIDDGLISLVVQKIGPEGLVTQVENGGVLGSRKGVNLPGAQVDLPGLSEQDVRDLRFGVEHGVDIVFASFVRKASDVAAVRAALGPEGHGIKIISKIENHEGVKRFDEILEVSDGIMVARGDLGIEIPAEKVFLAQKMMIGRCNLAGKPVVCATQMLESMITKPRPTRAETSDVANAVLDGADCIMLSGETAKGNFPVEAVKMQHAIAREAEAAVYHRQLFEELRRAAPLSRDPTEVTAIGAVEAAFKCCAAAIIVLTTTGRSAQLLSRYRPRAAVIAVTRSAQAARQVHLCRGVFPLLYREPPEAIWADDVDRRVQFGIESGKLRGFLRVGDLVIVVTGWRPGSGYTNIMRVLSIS

PKR(R510Q), sequence (P30613 whole entry R510Q): as the sequence (P30613 whole entry) above, with R510Q counted along it
PKR(G332S), sequence (P30613 whole entry G332S): as the sequence (P30613 whole entry) above, with G332S counted along it

| activation at 1.54 µM (PKR(R510Q)) | AC50 (PKR(R510Q)) | Emax (PKR(R510Q)) | activation at 1.54 µM (PKR(G332S)) | AC50 (PKR(G332S)) | Emax (PKR(G332S)) | activation at 1.54 µM (PKR(wt)) | AC50 (PKR(wt)) | Emax (PKR(wt)) | Compound |
| --- | --- | --- | --- | --- | --- | --- | --- | --- | --- |
| 75 to 250% | 1 to 40 µM | 250 to 500% | 75 to 250% | 1 to 40 µM | 75 to 250% | 75 to 250% | 1 to 40 µM | 250 to 500% | O=C([C@H]1CCCO1)N1CC2=C(C1)CN(S(=O)(=O)c1ccccn1)C2 [Example 18-60, 2-({5-[(2R)-oxolane-2-carbonyl]-1H,2H,3H,4H,5H,6H-pyrrolo[3,4-c]pyrrol-2-yl}sulfonyl)pyridine] |
| 75 to 250% | 1 to 40 µM | 250 to 500% | 75 to 250% | 1 to 40 µM | 75 to 250% | 75 to 250% | 1 to 40 µM | 250 to 500% | Cc1ccc(CC(=O)N2CC3=C(C2)CN(S(=O)(=O)c2ccccn2)C3)cn1 [Example 18-61, 2-(6-Methylpyridin-3-yl)-1-[5-(pyridine-2-sulfonyl)-1H,2H,3H,4H,5H,6H-pyrrolo[3,4-c]pyrrol-2-yl]ethan-1-one] |
| 75 to 250% | 1 to 40 µM | 250 to 500% | 75 to 250% | 1 to 40 µM | 75 to 250% | 75 to 250% | 0.1 to 1 µM | 75 to 250% | O=C([C@H](O)c1ccc(F)cc1)N1CC2=C(C1)CN(S(=O)(=O)c1cccnc1)C2 [Example 18-62, (2R)-2-(4-fluorophenyl)-2-hydroxy-1-[5-(pyridine-3-sulfonyl]-1H,2H,3H,4H,5H,6H-pyrrolo[3,4-c]pyrrol-2-yl]ethan-1-one] |
| 250 to 50000% | 0.1 to 1 µM | 250 to 500% | 75 to 250% | 1 to 40 µM | 75 to 250% | 75 to 250% | 0.1 to 1 µM | 250 to 500% | O=C([C@H](O)c1ccc(F)cc1)N1CC2=C(C1)CN(S(=O)(=O)c1ccccn1)C2 [Example 18-63, (2R)-2-(4-fluorophenyl)-2-hydroxy-1-[5-(pyridine-2-sulfonyl)-1H,2H,3H,4H,5H,6H-pyrrolo[3,4-c]pyrrol-2-yl]ethan-1-one] |
| 75 to 250% | 1 to 40 µM | 75 to 250% | 75 to 250% | 1 to 40 µM | 75 to 250% | 75 to 250% | 1 to 40 µM | 75 to 250% | O=C([C@H](O)c1ccc(F)cc1)N1CC2=C(C1)CN(S(=O)(=O)c1ccc(C(F)(F)F)nc1)C2 [Example 18-64, (2R)-2-(4-fluorophenyl)-2-hydroxy-1-(5-{[6-(trifluoromethyl)pyridin-3-yl]sulfonyl}-1H,2H,3H,4H,5H,6H-pyrrolo[3,4-c]pyrrol-2-yl)ethan-1-one] |
| 75 to 250% | 1 to 40 µM | 75 to 250% | 75 to 250% | 1 to 40 µM | 75 to 250% | 75 to 250% | 1 to 40 µM | 250 to 500% | O=C(N1CC2=C(C1)CN(S(=O)(=O)c1ccccn1)C2)C1(O)CC1 [Example 18-65, 1-[5-(Pyridine-2-sulfonyl)-1H,2H,3H,4H,5H,6H-pyrrolo[3,4-c]pyrrole-2-carbonyl]cyclopropan-1-ol] |
| 75 to 250% | 1 to 40 µM | 250 to 500% | 75 to 250% | 1 to 40 µM | 75 to 250% | 75 to 250% | 1 to 40 µM | 250 to 500% | O=C(Cc1ccc(F)cc1F)N1CC2=C(C1)CN(S(=O)(=O)c1cccnc1)C2 [Example 18-66, 2-(2,4-Difluorophenyl)-1-[5-(pyridine-3-sulfonyl)-1H,2H,3H,4H,5H,6H-pyrrolo[3,4-c]pyrrol-2-yl]ethan-1-one] |
| 75 to 250% | 1 to 40 µM | 250 to 500% | 75 to 250% | 0.1 to 1 µM | 75 to 250% | 75 to 250% | 1 to 40 µM | 250 to 500% | O=C(Cc1ccc(F)cc1F)N1CC2=C(C1)CN(S(=O)(=O)c1ccccn1)C2 [Example 18-67, 2-(2,4-Difluorophenyl)-1-[5-(pyridine-2-sulfonyl)-1H,2H,3H,4H,5H,6H-pyrrolo[3,4-c]pyrrol-2-yl]ethan-1-one] |

Second part, the compound before the results:

| Compound | activation at 1.54 µM (PKR(R510Q)) | AC50 (PKR(R510Q)) | Emax (PKR(R510Q)) | activation at 1.54 µM (PKR(G332S)) | AC50 (PKR(G332S)) | Emax (PKR(G332S)) | activation at 1.54 µM (PKR(wt)) | AC50 (PKR(wt)) | Emax (PKR(wt)) |
| --- | --- | --- | --- | --- | --- | --- | --- | --- | --- |
| O=C(C(O)c1ccc(C(F)(F)F)cc1)N1CC2=C(C1)CN(S(=O)(=O)c1ccc(OC(F)F)cc1)C2 (stereo not drawn) [Example 18-32, 1-{5-[4-(Difluoromethoxy)benzenesulfonyl]-1H,2H,3H,4H,5H,6H-pyrrolo[3,4-c]pyrrol-2-yl}-2-hydroxy-2-[4-(trifluoromethyl)phenyl]ethan-1-one] | 75 to 250% | 0.1 to 1 µM | 250 to 500% | 75 to 250% | 0.1 to 1 µM | 75 to 250% | 75 to 250% | 0.1 to 1 µM | 250 to 500% |
| Cc1nn(C)c(Cl)c1S(=O)(=O)N1CC2=C(CN(C(=O)[C@H](O)c3ccccc3)C2)C1 [Example 18-43, (2R)-1-{5-[(5-chloro-1,3-dimethyl-1H-pyrazol-4-yl)sulfonyl]-1H,2H,3H,4H,5H,6H-pyrrolo[3,4-c]pyrrol-2-yl}-2-hydroxy-2-phenylethan-1-one] | 75 to 250% | 1 to 40 µM | 75 to 250% | 75 to 250% | 1 to 40 µM | 75 to 250% | 75 to 250% | 1 to 40 µM | 75 to 250% |
| N#Cc1ccccc1S(=O)(=O)N1CC2=C(CN(C(=O)[C@H](O)c3ccccc3)C2)C1 [Example 18-47, 2-({5-[(2R)-2-hydroxy-2-phenylacetyl]-1H,2H,3H,4H,5H,6H-pyrrolo[3,4-c]pyrrol-2-yl}sulfonyl)benzonitrile] | 75 to 250% | 0.1 to 1 µM | 75 to 250% | 75 to 250% | 1 to 40 µM | 75 to 250% | 75 to 250% | 0.1 to 1 µM | 75 to 250% |
| Cc1ccc(S(=O)(=O)N2CC3=C(CN(C(=O)[C@H](O)c4ccccc4)C3)C2)cc1F [Example 18-51, (2R)-1-[5-(3-fluoro-4-methylbenzenesulfonyl)-1H,2H,3H,4H,5H,6H-pyrrolo[3,4-c]pyrrol-2-yl]-2-hydroxy-2-phenylethan-1-one] | 75 to 250% | 0.1 to 1 µM | 250 to 500% | 75 to 250% | 1 to 40 µM | 75 to 250% | 75 to 250% | 0.1 to 1 µM | 75 to 250% |
| O=C([C@H](O)c1ccccc1)N1CC2=C(C1)CN(S(=O)(=O)c1cc(F)cc(F)c1)C2 [Example 18-52, (2R)-1-[5-(3,5-difluorobenzenesulfonyl)-1H,2H,3H,4H,5H,6H-pyrrolo[3,4-c]pyrrol-2-yl]-2-hydroxy-2-phenylethan-1-one] | 75 to 250% | 0.1 to 1 µM | 75 to 250% | 75 to 250% | 1 to 40 µM | 75 to 250% | 75 to 250% | 0.1 to 1 µM | 75 to 250% |
| O=C([C@H](O)c1ccccc1)N1CC2=C(C1)CN(S(=O)(=O)c1ccc(F)c(F)c1)C2 [Example 18-53, (2R)-1-[5-(3,4-difluorobenzenesulfonyl)-1H,2H,3H,4H,5H,6H-pyrrolo[3,4-c]pyrrol-2-yl]-2-hydroxy-2-phenylethan-1-one] | 75 to 250% | 0.1 to 1 µM | 75 to 250% | 75 to 250% | 1 to 40 µM | 75 to 250% | 75 to 250% | 0.1 to 1 µM | 75 to 250% |
| Cc1cccc(Cl)c1S(=O)(=O)N1CC2=C(CN(C(=O)[C@@H](O)c3ccccc3)C2)C1 [Example 18-54, (2S)-1-[5-(2-chloro-6-methylbenzenesulfonyl)-1H,2H,3H,4H,5H,6H-pyrrolo[3,4-c]pyrrol-2-yl]-2-hydroxy-2-phenylethan-1-one] | 75 to 250% | 1 to 40 µM | 75 to 250% | 75 to 250% | 1 to 40 µM | 75 to 250% | 75 to 250% | 1 to 40 µM | 75 to 250% |
| CC(=O)Nc1ccc(S(=O)(=O)N2CC3=C(CN(C(=O)[C@H](O)c4ccccc4)C3)C2)cc1 [Example 18-56, N-[4-({5-[(2R)-2-hydroxy-2-phenylacetyl]-1H,2H,3H,4H,5H,6H-pyrrolo[3,4-c]pyrrol-2-yl}sulfonyl)phenyl]acetamide] | 75 to 250% | 1 to 40 µM | 250 to 500% | 75 to 250% | 1 to 40 µM | 75 to 250% | 75 to 250% | 1 to 40 µM | 75 to 250% |
| COc1cc(Cl)ccc1S(=O)(=O)N1CC2=C(CN(C(=O)[C@H](O)c3ccccc3)C2)C1 [Example 18-58, (2R)-1-[5-(4-chloro-2-methoxybenzenesulfonyl)-1H,2H,3H,4H,5H,6H-pyrrolo[3,4-c]pyrrol-2-yl]-2-hydroxy-2-phenylethan-1-one] | 75 to 250% | 1 to 40 µM | 75 to 250% | 75 to 250% | 1 to 40 µM | 75 to 250% | 75 to 250% | 1 to 40 µM | 75 to 250% |
| O=C([C@H]1CCCO1)N1CC2=C(C1)CN(S(=O)(=O)c1cccnc1)C2 [Example 18-59, 3-({5-[(2R)-oxolane-2-carbonyl]-1H,2H,3H,4H,5H,6H-pyrrolo[3,4-c]pyrrol-2-yl}sulfonyl)pyridine] | 75 to 250% | 1 to 40 µM | 75 to 250% | 75 to 250% | 1 to 40 µM | 75 to 250% | 75 to 250% | 1 to 40 µM | 75 to 250% |
